{
  "source": "patent US6693216B2",
  "about": "“Calcium double salts” (Nutrinova Nutrition Specialties & Food Ingredients GmbH, priority 2000, dated 2004)",
  "key": {"Lactic acid bacteria": {"test_system": "Lactic acid bacteria", "details": "Part I, 1 g/l in apple juice pH 4.5, 25° C."}, "Molds I": {"test_system": "Molds I", "details": "Part I, 1 g/l in apple juice pH 4.5, 25° C."}, "Clostridia": {"test_system": "Clostridia", "details": "Part I, 1 g/l in apple juice pH 4.5, 25° C."}, "Gram-positive bacteria": {"test_system": "Gram-positive bacteria", "details": "Part I, 1 g/l in apple juice pH 4.5, 25° C."}, "Bacilli": {"test_system": "Bacilli", "details": "Part I, 1 g/l in apple juice pH 4.5, 25° C."}, "Gram-negative bacteria": {"test_system": "Gram-negative bacteria", "details": "Part I, 1 g/l in apple juice pH 4.5, 25° C."}, "Acetic acid bacteria": {"test_system": "Acetic acid bacteria", "details": "Part I, 1 g/l in apple juice pH 4.5, 25° C."}, "[1]": {"details": "sealed", "from_the_text": "Salts prepared as in example 1 were dried, stored under the specified conditions without the addition of other substances and checked at regular intervals visually for discoloration: […]"}, "Thermophilic bacilli": {"test_system": "Thermophilic bacilli", "details": "Part I, 1 g/l in apple juice pH 4.5, 25° C."}, "Yeasts": {"test_system": "Yeasts", "details": "Part I, 1 g/l in apple juice pH 4.5, 25° C."}, "Molds II": {"test_system": "Molds II", "details": "Part I, 1 g/l in apple juice pH 4.5, 25° C."}, "[2]": {"details": "1 day after inoculation (1.5 × 10^4)"}, "[3]": {"details": "3 days after inoculation (1.5 × 10^4)"}, "[4]": {"details": "7 days after inoculation (1.5 × 10^4)"}, "[5]": {"details": "14 days after inoculation (1.5 × 10^4)"}},
  "note": "Like-named read-outs stand apart in the source and are kept apart here.",
  "data": [
    {"smiles": "C/C=C/C=C/C(=O)[O-].CCC(=O)[O-].[Ca+2]", "note": "[calcium propionate sorbate]", "values": [
      {"measurement": "Number of surviving microorganisms per g of contaminated sample, Lactic acid bacteria", "setting": "Lactic acid bacteria; 1 day after inoculation (1.9 × 10^4)", "result": "4.0 × 10^4 CFU/g"},
      {"measurement": "Number of surviving microorganisms per g of contaminated sample, Lactic acid bacteria", "setting": "Lactic acid bacteria; 3 days after inoculation (1.9 × 10^4)", "result": "3.2 × 10^5 CFU/g"},
      {"measurement": "Number of surviving microorganisms per g of contaminated sample, Lactic acid bacteria", "setting": "Lactic acid bacteria; 7 days after inoculation (1.9 × 10^4)", "result": "2.4 × 10^3 CFU/g"},
      {"measurement": "Number of surviving microorganisms per g of contaminated sample, Lactic acid bacteria", "setting": "Lactic acid bacteria; 14 days after inoculation (1.9 × 10^4)", "result": 130, "unit": "CFU/g"},
      {"measurement": "Number of surviving microorganisms per g of contaminated sample, Molds I", "setting": "Molds I; 1 day after inoculation (1.7 × 10^4)", "result": "4.0 × 10^3 CFU/g"},
      {"measurement": "Number of surviving microorganisms per g of contaminated sample, Molds I", "setting": "Molds I; 3 days after inoculation (1.7 × 10^4)", "result": 700, "unit": "CFU/g"},
      {"measurement": "Number of surviving microorganisms per g of contaminated sample, Molds I", "setting": "Molds I; 7 days after inoculation (1.7 × 10^4)", "result": "<100", "unit": "CFU/g"},
      {"measurement": "Number of surviving microorganisms per g of contaminated sample, Molds I", "setting": "Molds I; 14 days after inoculation (1.7 × 10^4)", "result": "<10", "unit": "CFU/g"},
      {"measurement": "Number of surviving microorganisms per g of contaminated sample, Clostridia", "setting": "Clostridia; 1 day after inoculation (1.4 × 10^4)", "result": "1.3 × 10^3 CFU/g"},
      {"measurement": "Number of surviving microorganisms per g of contaminated sample, Clostridia", "setting": "Clostridia; 3 days after inoculation (1.4 × 10^4)", "result": 800, "unit": "CFU/g"},
      {"measurement": "Number of surviving microorganisms per g of contaminated sample, Clostridia", "setting": "Clostridia; 7 days after inoculation (1.4 × 10^4)", "result": 310, "unit": "CFU/g"},
      {"measurement": "Number of surviving microorganisms per g of contaminated sample, Clostridia", "setting": "Clostridia; 14 days after inoculation (1.4 × 10^4)", "result": 55, "unit": "CFU/g"},
      {"measurement": "Number of surviving microorganisms per g of contaminated sample, Gram-positive bacteria", "setting": "Gram-positive bacteria; 1 day after inoculation (2.6 × 10^4)", "result": "7.0 × 10^4 CFU/g"},
      {"measurement": "Number of surviving microorganisms per g of contaminated sample, Gram-positive bacteria", "setting": "Gram-positive bacteria; 3 days after inoculation (2.6 × 10^4)", "result": "7.0 × 10^3 CFU/g"},
      {"measurement": "Number of surviving microorganisms per g of contaminated sample, Gram-positive bacteria", "setting": "Gram-positive bacteria; 7 days after inoculation (2.6 × 10^4)", "result": 400, "unit": "CFU/g"},
      {"measurement": "Number of surviving microorganisms per g of contaminated sample, Gram-positive bacteria", "setting": "Gram-positive bacteria; 14 days after inoculation (2.6 × 10^4)", "result": "<10", "unit": "CFU/g"},
      {"measurement": "Number of surviving microorganisms per g of contaminated sample, Bacilli", "setting": "Bacilli; [2]", "result": "2.3 × 10^4 CFU/g"},
      {"measurement": "Number of surviving microorganisms per g of contaminated sample, Bacilli", "setting": "Bacilli; [3]", "result": "1.4 × 10^3 CFU/g"},
      {"measurement": "Number of surviving microorganisms per g of contaminated sample, Bacilli", "setting": "Bacilli; [4]", "result": "1.3 × 10^3 CFU/g"},
      {"measurement": "Number of surviving microorganisms per g of contaminated sample, Bacilli", "setting": "Bacilli; [5]", "result": 50, "unit": "CFU/g"},
      {"measurement": "Number of surviving microorganisms per g of contaminated sample, Gram-negative bacteria", "setting": "Gram-negative bacteria; 1 day after inoculation (2.4 × 10^4)", "result": "3.5 × 10^4 CFU/g"},
      {"measurement": "Number of surviving microorganisms per g of contaminated sample, Gram-negative bacteria", "setting": "Gram-negative bacteria; 3 days after inoculation (2.4 × 10^4)", "result": "1.7 × 10^3 CFU/g"},
      {"measurement": "Number of surviving microorganisms per g of contaminated sample, Gram-negative bacteria", "setting": "Gram-negative bacteria; 7 days after inoculation (2.4 × 10^4)", "result": 900, "unit": "CFU/g"},
      {"measurement": "Number of surviving microorganisms per g of contaminated sample, Gram-negative bacteria", "setting": "Gram-negative bacteria; 14 days after inoculation (2.4 × 10^4)", "result": "<10", "unit": "CFU/g"},
      {"measurement": "Number of surviving microorganisms per g of contaminated sample, Acetic acid bacteria", "setting": "Acetic acid bacteria; 1 day after inoculation (2.3 × 10^4)", "result": "7.5 × 10^4 CFU/g"},
      {"measurement": "Number of surviving microorganisms per g of contaminated sample, Acetic acid bacteria", "setting": "Acetic acid bacteria; 3 days after inoculation (2.3 × 10^4)", "result": "2.1 × 10^6 CFU/g"},
      {"measurement": "Number of surviving microorganisms per g of contaminated sample, Acetic acid bacteria", "setting": "Acetic acid bacteria; 7 days after inoculation (2.3 × 10^4)", "result": "2.9 × 10^6 CFU/g"},
      {"measurement": "Number of surviving microorganisms per g of contaminated sample, Acetic acid bacteria", "setting": "Acetic acid bacteria; 14 days after inoculation (2.3 × 10^4)", "result": "1.1 × 10^6 CFU/g"},
      {"measurement": "Time after yellow-brown discoloration of a 1% strength aqueous solution", "setting": "[1]; dark at 7° C.", "result": ">12", "unit": "months/>12 months"},
      {"measurement": "Time after yellow-brown discoloration of the powder", "setting": "[1]; dark at 7° C.", "result": 12, "unit": "months/>12 months"},
      {"measurement": "Time after yellow-brown discoloration of a 1% strength aqueous solution", "setting": "[1]; dark at 25° C.", "result": ">12", "unit": "months/>12 months"},
      {"measurement": "Time after yellow-brown discoloration of the powder", "setting": "[1]; dark at 25° C.", "result": 12, "unit": "months/>12 months"},
      {"measurement": "Time after yellow-brown discoloration of a 1% strength aqueous solution", "setting": "[1]; under sunlight at 7° C.", "result": 12, "unit": "months/12 months"},
      {"measurement": "Time after yellow-brown discoloration of the powder", "setting": "[1]; under sunlight at 7° C.", "result": 12, "unit": "months/12 months"},
      {"measurement": "Time after yellow-brown discoloration of a 1% strength aqueous solution", "setting": "[1]; under sunlight at 25° C.", "result": 12, "unit": "months/12 months"},
      {"measurement": "Time after yellow-brown discoloration of the powder", "setting": "[1]; under sunlight at 25° C.", "result": 12, "unit": "months/12 months"},
      {"measurement": "Number of surviving microorganisms per g of contaminated sample, Thermophilic bacilli", "setting": "Thermophilic bacilli; 1 day after inoculation (1.3 × 10^4)", "result": "1.1 × 10^3 CFU/g"},
      {"measurement": "Number of surviving microorganisms per g of contaminated sample, Thermophilic bacilli", "setting": "Thermophilic bacilli; 3 days after inoculation (1.3 × 10^4)", "result": "<100", "unit": "CFU/g"},
      {"measurement": "Number of surviving microorganisms per g of contaminated sample, Thermophilic bacilli", "setting": "Thermophilic bacilli; 7 days after inoculation (1.3 × 10^4)", "result": 10, "unit": "CFU/g"},
      {"measurement": "Number of surviving microorganisms per g of contaminated sample, Thermophilic bacilli", "setting": "Thermophilic bacilli; 14 days after inoculation (1.3 × 10^4)", "result": 5, "unit": "CFU/g"},
      {"measurement": "Number of surviving microorganisms per g of contaminated sample, Yeasts", "setting": "Yeasts; 1 day after inoculation (2.5 × 10^4)", "result": "8.5 × 10^4 CFU/g"},
      {"measurement": "Number of surviving microorganisms per g of contaminated sample, Yeasts", "setting": "Yeasts; 3 days after inoculation (2.5 × 10^4)", "result": "5.0 × 10^4 CFU/g"},
      {"measurement": "Number of surviving microorganisms per g of contaminated sample, Yeasts", "setting": "Yeasts; 7 days after inoculation (2.5 × 10^4)", "result": "1.2 × 10^3 CFU/g"},
      {"measurement": "Number of surviving microorganisms per g of contaminated sample, Yeasts", "setting": "Yeasts; 14 days after inoculation (2.5 × 10^4)", "result": 10, "unit": "CFU/g"},
      {"measurement": "Antimicrobial activity (words, general statement)", "setting": "all microorganisms used", "result": "inhibited particularly well"},
      {"measurement": "Preservative action against the microorganisms used", "setting": "all microorganisms used; 1 g/l in apple juice pH 4.5, up to 14 days", "result": "acts well and persistently against all microorganisms used, except for bacilli"},
      {"measurement": "Preservative action compared with the single salts", "setting": "all microorganisms used; same concentration, 1 g/l in apple juice pH 4.5", "result": "acts surprisingly better than potassium sorbate (used at the same concentration), in particular against lactic acid bacteria, thermophilic bacilli, yeasts and some molds (molds group II)"},
      {"measurement": "Number of surviving microorganisms per g of contaminated sample, Molds II", "setting": "Molds II; [2]", "result": "1.1 × 10^3 CFU/g"},
      {"measurement": "Number of surviving microorganisms per g of contaminated sample, Molds II", "setting": "Molds II; [3]", "result": 80, "unit": "CFU/g"},
      {"measurement": "Number of surviving microorganisms per g of contaminated sample, Molds II", "setting": "Molds II; [4]", "result": 50, "unit": "CFU/g"},
      {"measurement": "Number of surviving microorganisms per g of contaminated sample, Molds II", "setting": "Molds II; [5]", "result": "<10", "unit": "CFU/g"}
    ]}
  ]
}
